Measured values taken from ChEMBL document CHEMBL4406824, “Phenolic N-monosubstituted carbamates: Antitubercular and toxicity evaluation of multi-targeting compounds” (Eur J Med Chem, 2019).
≈ marks a conversion by molar mass, not a printed value.

Assays:
Type in all cases: functional
[1] = system: Mycobacterium tuberculosis; assay: Antimycobacterial activity against multi drug resistant Mycobacterium tuberculosis Praha 1 after 21 days; conditions: Praha 1, 504 h
[2] = system: Mycobacterium tuberculosis; assay: Antimycobacterial activity against multi drug resistant Mycobacterium tuberculosis 8666/2010 after 14 days; conditions: 8666/2010, 336 h
[3] = system: Mycobacterium tuberculosis; assay: Antimycobacterial activity against multi drug resistant Mycobacterium tuberculosis 234/2005 after 14 days; conditions: 234/2005, 336 h
[4] = system: Mycobacterium tuberculosis; assay: Antimycobacterial activity against multi drug resistant Mycobacterium tuberculosis 8666/2010 after 21 days; conditions: 8666/2010, 504 h
[5] = system: Mycobacterium tuberculosis; assay: Antimycobacterial activity against multi drug resistant Mycobacterium tuberculosis Praha 1 after 14 days; conditions: Praha 1, 336 h
[6] = system: Mycobacterium tuberculosis; assay: Antimycobacterial activity against multi drug resistant Mycobacterium tuberculosis 9449/2006 after 21 days; conditions: 9449/2006, 504 h
[7] = system: Mycobacterium tuberculosis; assay: Antimycobacterial activity against multi drug resistant Mycobacterium tuberculosis 7357/1998 after 21 days; conditions: 7357/1998, 504 h
[8] = system: Mycobacterium tuberculosis; assay: Antimycobacterial activity against multi drug resistant Mycobacterium tuberculosis 7357/1998 after 14 days; conditions: 7357/1998, 336 h
[9] = system: Mycobacterium tuberculosis; assay: Antimycobacterial activity against multi drug resistant Mycobacterium tuberculosis Praha 4 after 21 days; conditions: Praha 4, 504 h
[10] = system: Mycobacterium tuberculosis; assay: Antimycobacterial activity against multi drug resistant Mycobacterium tuberculosis 234/2005 after 21 days; conditions: 234/2005, 504 h
[11] = system: Mycobacterium tuberculosis; assay: Antimycobacterial activity against multi drug resistant Mycobacterium tuberculosis Praha 4 after 14 days; conditions: Praha 4, 336 h
[12] = system: Mycobacterium tuberculosis; assay: Antimycobacterial activity against multi drug resistant Mycobacterium tuberculosis 9449/2006 after 14 days; conditions: 9449/2006, 336 h

Row | SMILES | MIC [1] [µM] | MIC [2] [µM] | MIC [3] [µM] | MIC [4] [µM] | MIC [5] [µM] | MIC [6] [µM] | MIC [7] [µM] | MIC [8] [µM] | MIC [9] [µM] | MIC [10] [µM] | MIC [11] [µM] | MIC [12] [µM]
1 | O=C(Nc1ccccc1)Oc1ccc(Cl)cc1C(=O)Nc1ccc(C(F)(F)F)cc1 | 1 (≈ 0.435 µg/mL) | 0.5 (≈ 0.217 µg/mL) | 1 (≈ 0.435 µg/mL) | 1 (≈ 0.435 µg/mL) | 0.5 (≈ 0.217 µg/mL) | 1 (≈ 0.435 µg/mL) | 1 (≈ 0.435 µg/mL) | 0.5 (≈ 0.217 µg/mL) | 1 (≈ 0.435 µg/mL) | 1 (≈ 0.435 µg/mL) | 0.5 (≈ 0.217 µg/mL) | 1 (≈ 0.435 µg/mL)
2 | O=C(NCCc1ccccc1)Oc1ccc(Cl)cc1C(=O)Nc1ccc(C(F)(F)F)cc1 | 1 (≈ 0.463 µg/mL) | 2 (≈ 0.926 µg/mL) | 2 (≈ 0.926 µg/mL) | 2 (≈ 0.926 µg/mL) | 1 (≈ 0.463 µg/mL) | 2 (≈ 0.926 µg/mL) | 2 (≈ 0.926 µg/mL) | 1 (≈ 0.463 µg/mL) | 2 (≈ 0.926 µg/mL) | 2 (≈ 0.926 µg/mL) | 2 (≈ 0.926 µg/mL) | 2 (≈ 0.926 µg/mL)
3 | O=C(NC12CC3CC(CC(C3)C1)C2)Oc1ccc(Cl)cc1C(=O)Nc1ccc(C(F)(F)F)cc1 | 1 (≈ 0.493 µg/mL) | 0.5 (≈ 0.246 µg/mL) | 1 (≈ 0.493 µg/mL) | 1 (≈ 0.493 µg/mL) | 0.5 (≈ 0.246 µg/mL) | 1 (≈ 0.493 µg/mL) | 1 (≈ 0.493 µg/mL) | 0.5 (≈ 0.246 µg/mL) | 1 (≈ 0.493 µg/mL) | 1 (≈ 0.493 µg/mL) | 0.5 (≈ 0.246 µg/mL) | 1 (≈ 0.493 µg/mL)
4 | O=C(NC1CCCCC1)Oc1ccc(Cl)cc1C(=O)Nc1ccc(C(F)(F)F)cc1 | 1 (≈ 0.441 µg/mL) | 0.5 (≈ 0.22 µg/mL) | 0.5 (≈ 0.22 µg/mL) | 1 (≈ 0.441 µg/mL) | 0.5 (≈ 0.22 µg/mL) | 1 (≈ 0.441 µg/mL) | 1 (≈ 0.441 µg/mL) | 0.5 (≈ 0.22 µg/mL) | 1 (≈ 0.441 µg/mL) | 1 (≈ 0.441 µg/mL) | 0.5 (≈ 0.22 µg/mL) | 0.5 (≈ 0.22 µg/mL)
